# Results: patent US20230338391A1, “TREATMENT FOR DEPRESSION” (TAKEDA PHARMACEUTICAL COMPANY LIMITED, priority 2020, published 2023)
# System: healthy subjects
# Assay: TMS crossover study: safety and tolerability
# Details: 0.5 mg/kg IV infusion, 20 subjects
smiles,measurement,value
"CNC1(c2ccccc2Cl)CCCCC1=O (stereo not shown) [ketamine, reference compound]",discontinuation because of AEs,One subject in the ketamine treatment was discontinued from study drug because of AEs
